What was measured:
Cdk6 = assay: Western blot: Cdk6 level in KMS-11 cells; format: cell-based, human; settings: KF58333 4.0, 20 and 100 nmol/l, 40 hours, FIG. 1
Protocol: (§1) KMS-11 cells derived from human multiple myeloma [In Vitro Cell. Dev. Biol., 25, 723 (1989)], which were diluted to 10,000 cells/ml with RPMI 1640 medium containing 10% fetal bovine serum (hereinafter referred to as “culturing medium”), were put in plastic culture flasks (125 cm^2, Nunc) in 30 ml portions. KMS-11 cells are reported to be the cells in which a large amount of FGFR3 is expressed as a result of translocation between immunoglobulin gene on 14q32 and FGFR3 gene on 4p16.3 [Blood, 90, 4062 (1997)]. […]
(§2) To the thus recovered cells was added a cooled lysis buffer (50 mmol/l HEPES NaOH, pH 7.4, 250 mmol/l sodium chloride, 1 mmol/l ethylenediamine tetraacetate, 1% Nonidet P-40, 1 mmol/l dithiothreitol, 1 mmol/l phenylmethylsulfonyl fluoride, 5 μg/ml leupeptin), and the mixture was allowed to stand at 4° C. for 30 minutes for cytolysis, followed by centrifugation at 20000 G for 10 minutes. The concentration of proteins in the supernatant thus obtained was measured, and the samples were adjusted so that the amount of proteins per each lane was the same. […]
(§3) The separated protein samples were each transferred to a polyvinylidene difluoride membrane (Millipore). […] The band of each protein was detected by FluorImager (Molecular Dynamics) after reaction with ECF reagent (Molecular Dynamics).

Erk2 = assay: Western blot: Erk2 level in KMS-11 cells; format: cell-based, human; settings: KF58333 4.0, 20 and 100 nmol/l, 40 hours, FIG. 1, Erk2 is not an Hsp90 client protein
Protocol: as §1, §2, §3

KMS-11 cells [1] = assay: In vivo antitumor effect in KMS-11 cell-transplanted mice; settings: KMS-11 subcutaneous tumor in scid mice, 25 mg/kg intravenously once a day for 5 consecutive days, measured up to day 24, FIG. 3
Protocol: In vivo antitumor effect of a compound having an inhibitory action on Hsp90 was examined using a human tumor model prepared by transplanting KMS-11 cells to immunodeficient mice as a model of a disease associated with immunoglobulin gene translocations.
KMS-11 cells were cultured in a 5% CO2 incubator at 37° C. using the culturing medium for propagation. One day before transplantation, 0.3 mg/mouse of anti-asialo GM1 antibody was intraperitoneally administered to 10 […] Fox C.B-17/Icr-scidJcl mice (CLEA JAPAN). One day after the administration of the antibody, the cultured KMS-11 cells (1×10^7 cells/mouse) were subcutaneously transplanted to the mice. Fourteen days after the transplantation, the longer diameter and shorter diameter of the tumor subcutaneously grown were measured with slide calipers, and the tumor volume was calculated according to the following equation: Tumor volume V(mm^3)={longer diameter (mm)×[shorter diameter(mm)]^2}/2
At the same time, the body weight of each mouse was measured, and the mice were divided into two groups of 5 mice each so that the tumor volume and the body weight are randomized. The day was defined as day 0 of the administration test, and drug administration was started in the following manner. […]

KMS-11 cells [2] = assay: Growth inhibition of KMS-11 cells (XTT); format: cell-based; settings: Homo sapiens, 72 hours, calculated from the graph of FIG. 2, read-out: concentration to inhibit cell growth by 50% (GI50 value)
Protocol: KMS-11 cells diluted to 2×10^5 cells/ml with the culturing medium were pipetted into a 96-well microplate (Nunc) in an amount of 50 μl ([…]) per well. To each well was added 50 μl of a solution prepared by diluting a 10 mmol/l solution of KF58333 in DMSO to 600 nmol/l with the culturing medium and further serially diluting the resulting solution threefold with the culturing medium so as to make the final concentrations of KF58333 of 300, 100, 33.3, 11.1, 3.70 and 1.23 nmol/l, respectively. […] Thereafter, incubation was carried out in a 5% CO2 incubator at 37° C. for 72 hours, and the number of living cells was measured in the following manner. […] Then, the absorbance at 450 nm and 655 nm was measured using a microplate spectrophotometer (Model 550, BIO-RAD). A value (difference in absorbance) was calculated by subtracting the absorbance at 655 nm from that at 450 nm for each well. Since the number of living cells is proportional to the difference in absorbance, the rate (%) of the value of difference in absorbance obtained for cells to which various concentrations of KF58333 were added to that obtained for control cells to which KF58333 was not added when the latter value was designated as 100% was calculated as the rate of the number of living cells to that of control, and the cell growth inhibitory activity of KF58333 was measured.

FGFR3 = assay: Western blot: intracellular disappearance of FGFR3 in KMS-11 cells; format: cell-based, human; settings: KF58333 4.0, 20 and 100 nmol/l, 40 hours, FIG. 1
Protocol: as §1, §2, §3

Raf-1 = assay: Western blot: Raf-1 level in KMS-11 cells; format: cell-based, human; settings: KF58333 4.0, 20 and 100 nmol/l, 40 hours, FIG. 1
Protocol: as §1, §2, §3

multiple myeloma cells = settings: mice to which multiple myeloma cells were transplanted; Blood, 100, 392 (2002); cited from earlier work

Row | SMILES | intracellular amount of Cdk6 (Western blot) (Cdk6) | intracellular amount of Erk2 (Western blot) (Erk2) | tumor growth (volume ratio V/V0) (KMS-11 cells [1]) | GI50 (KMS-11 cells [2]) [nM] | intracellular amount of FGFR3 (Western blot) (FGFR3) | intracellular amount of Raf-1 (Western blot) (Raf-1) | survival time of mice (multiple myeloma cells)
1 | CC1CC2OC2\C=C/C=C/C(=N\OCCN2CCCC2=O)Cc2c(Cl)c(O)cc(O)c2C(=O)O1 (stereo not shown) [KF58333] | disappeared | no change | apparent suppression of tumor growth | 19.8 | disappeared | disappeared | 
2 | C=CCNC1=C2C[C@@H](C)C[C@H](OC)[C@H](O)[C@@H](C)/C=C(\C)[C@H](OC(N)=O)[C@@H](OC)/C=C\C=C(/C)C(=O)NC(=CC1=O)C2=O [17-allylamino-17-demethoxy geldanamycin] |  |  |  |  |  |  | extended survival time
